These results are taken from patent US20210179600A1, “OXAZOLE AND THIAZOLE DERIVATIVES AS INHIBITORS OF ASK1” (Hepagene Therapeutics (HK) Limited, priority 2017, published 2021).

Structures are written as SMILES. A value given as a limit tells only on which side of the number the result lay.

This assay addresses T1, Recombinant human ASK1 kinase (Homo sapiens, UniProt Q99683).
T1 construct: purchased Invitrogen Inc
T1 sequence (Q99683 1-1374): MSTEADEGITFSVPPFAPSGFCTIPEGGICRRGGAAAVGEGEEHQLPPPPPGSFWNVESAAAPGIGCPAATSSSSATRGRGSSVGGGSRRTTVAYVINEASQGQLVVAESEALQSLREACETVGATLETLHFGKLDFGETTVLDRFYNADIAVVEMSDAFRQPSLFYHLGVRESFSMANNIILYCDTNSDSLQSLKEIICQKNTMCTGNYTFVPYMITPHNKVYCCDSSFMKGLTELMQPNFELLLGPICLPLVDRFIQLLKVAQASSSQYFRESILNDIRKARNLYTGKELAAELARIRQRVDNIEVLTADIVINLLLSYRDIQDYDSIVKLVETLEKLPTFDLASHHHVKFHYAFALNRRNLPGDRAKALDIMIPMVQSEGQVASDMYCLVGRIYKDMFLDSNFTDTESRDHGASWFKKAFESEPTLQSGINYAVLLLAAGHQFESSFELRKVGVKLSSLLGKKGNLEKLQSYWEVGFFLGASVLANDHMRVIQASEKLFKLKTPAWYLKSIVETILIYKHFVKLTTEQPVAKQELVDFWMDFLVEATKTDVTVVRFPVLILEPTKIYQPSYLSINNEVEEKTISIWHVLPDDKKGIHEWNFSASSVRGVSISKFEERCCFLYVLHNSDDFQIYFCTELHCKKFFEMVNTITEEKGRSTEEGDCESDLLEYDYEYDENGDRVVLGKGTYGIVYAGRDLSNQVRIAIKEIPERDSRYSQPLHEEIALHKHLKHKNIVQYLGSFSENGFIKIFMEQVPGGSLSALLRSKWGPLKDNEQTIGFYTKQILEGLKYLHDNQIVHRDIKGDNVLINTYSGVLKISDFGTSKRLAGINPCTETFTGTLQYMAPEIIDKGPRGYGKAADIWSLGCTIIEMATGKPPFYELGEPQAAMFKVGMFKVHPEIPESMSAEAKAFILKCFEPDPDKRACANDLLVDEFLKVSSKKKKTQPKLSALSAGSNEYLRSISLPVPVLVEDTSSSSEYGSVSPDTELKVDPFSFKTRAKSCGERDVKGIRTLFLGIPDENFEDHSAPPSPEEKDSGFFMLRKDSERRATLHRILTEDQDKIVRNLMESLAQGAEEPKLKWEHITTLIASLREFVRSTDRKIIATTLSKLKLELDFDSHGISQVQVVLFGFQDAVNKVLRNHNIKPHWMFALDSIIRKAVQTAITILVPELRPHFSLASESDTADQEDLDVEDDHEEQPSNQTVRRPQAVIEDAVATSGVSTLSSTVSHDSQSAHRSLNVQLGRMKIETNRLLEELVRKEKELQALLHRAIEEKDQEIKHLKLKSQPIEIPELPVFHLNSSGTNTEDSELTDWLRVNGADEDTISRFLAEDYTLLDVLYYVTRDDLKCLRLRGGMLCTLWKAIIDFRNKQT
Kind of assay: ASK1 kinase HTRF assay (KinEASE-STK). In kind it is biochemical. The following applies: HTRF detection; 3 nM ASK1 kinase, 1 uM STK-substrate-biotin. How it is done:
Reagents: Recombinant human ASK1 kinase was from Invitrogen Inc. HTRF KinEASE™-STK S3 kit was obtained from Cisbio (Bedford, Mass.). All other reagents were of the highest grade commercially available.
Assay: The assay measures the phosphorylation level of a biotinylatd peptide substrate by the ASK1 kinase using HTRF detection. ASK1 kinase assay is based on HTRF KinEASE™-STK manual from Cisbio. Test compound, 1 uM STK-substrate-biotin, 3 nM of ASK1 kinase are incubated with 1*Kinase buffer with 5 mM MgCl2 and 1 mM DTT. 250 nM Sa-XL 665(4*) and STK-antibody-Cryptate work solution are added to stop the reaction and phosphorylated peptide substrate is detected using Envision 2104 Multilabeled reader from PerkinElmer. The fluorescence is measured at 615 nm (Cryptate) and 665 nm (XL665) and a ratio of 665 nm/615 nm is calculated for each well. The resulting TR-FRET level (a ratio of 665 nm/615 nm) is proportional to the phosphorylation level of substrate.
Turning to `CC(C)n1cnnc1-c1cccc(-c2ncc(-c3cccc(-n4cnc(C5CC5)c4)c3)o2)n1` [Compound I-144], the concentration for a half-maximal effect (EC50) – broadly, the midpoint of the concentration-response curve – is at most 50 nM.

As to `Cc1ccc(-c2cnc(-c3cccc(-c4nncn4[C@H](C)CO)n3)o2)cc1` [Compound I-030], the EC50 was at most 50 nM.

As to `CC(C)n1cnnc1-c1cccc(-c2ncc(-c3cccc(C(N)=O)c3)o2)n1` [Compound I-009, 3-(2-[6-[4-(Propan-2-yl)-4H-1,2,4-triazol-3-yl]pyridin-2-yl]-1,3-oxazol-5-yl)benzamide], the EC50 was in the range of 50 to 500 nM.

For the molecule `C[C@@H](CO)n1cnnc1-c1cccc(-c2ncc(-c3ccccc3)o2)n1` [Compound I-019], the EC50 is 50 to 500 nM.

In the case of `CC(C)n1cnnc1-c1cccc(-c2ncc(-c3ccc(N4CCOCC4)cc3F)o2)n1` [Compound I-112], the 50% effective concentration (EC50) fell in the range of 500 to 5000 nM.

For the molecule `CC(C)Oc1cccc(-c2cnc(-c3cccc(-c4nncn4C(C)C)n3)o2)c1` [Compound I-076], the EC50 is at most 50 nM.

Turning to `CC(C)n1cnnc1-c1cccc(-c2ncc(-c3cccc(C4=CCCCC4)c3)o2)n1` [Compound I-132], the EC50 lay in the range of 50 to 500 nM.

As to `CSc1ccc(-c2cnc(-c3cccc(-c4nncn4C(C)C)n3)o2)cc1` [Compound I-067], the concentration giving a half-maximal response (EC50) is at most 50 nM.

With `CC(C)n1cnnc1-c1cccc(-c2ncc(-c3ccccc3)o2)n1` [Compound I-002, 2-(5-Phenyl-1,3-oxazol-2-yl)-6-[4-(propan-2-yl)-4H-1,2,4-triazol-3-yl] pyridine], the EC50 was at most 50 nM.

Take `CC(C)n1cnnc1-c1cccc(-c2ncc(-c3cccc(C4CCNCC4)c3)o2)n1` [Compound I-123]: the concentration for a half-maximal effect (EC50) is at most 50 nM.

In the case of `CC(C1CC1)n1cnnc1-c1cccc(-c2ncc(-c3ccccc3)o2)n1` (centres unmarked) [Compound I-015, 2-(6-(4-(1-Cyclopropylethyl)-4H-1,2,4-triazol-3-yl)pyridin-2-yl)-5-phenyloxazole], the concentration giving a half-maximal response (EC50) was at most 50 nM.

For `CC(C)n1cnnc1-c1cccc(-c2ncc(-c3cccc(-c4ccccc4)c3)o2)n1` [Compound I-104], the concentration giving a half-maximal response (EC50) lay in the range of 50 to 500 nM.

On to `CC(C)n1cnnc1-c1cccc(-c2ncc(-c3nccs3)o2)n1` [Compound I-141], for which the half-maximal effective concentration (EC50) lay within 50 to 500 nM.

As for `C[C@H](CO)n1cnnc1-c1cccc(-c2ncc(-c3cccc(C4CCCCC4)c3)o2)n1` [Compound I-129], the EC50 was at most 50 nM.

As to `Cc1cccc(-c2cnc(-c3cccc(-c4nncn4C(C)C)n3)o2)c1` [Compound I-028], the EC50 was 50 to 500 nM.

On to `Cc1ccc(-c2cnc(-c3cccc(-c4nncn4[C@H](C)CO)n3)o2)c(F)c1` [Compound I-042], for which the 50% effective concentration (EC50) is at most 50 nM.

For the molecule `CC(C)n1cnnc1-c1cccc(-c2ncc(-c3cccc(N4C5CCCC4CC5)c3)o2)n1` [Compound I-121], the EC50 was 50 to 500 nM.

Turning to `CC(C)n1cnnc1-c1cccc(-c2ncc(-c3cccc(N4CCC(N)C4)c3)o2)n1` (centres unmarked) [Compound I-127], the EC50 was at most 50 nM.

`Cc1ccc(-c2cnc(-c3cccc(-c4nncn4C(C)C)n3)s2)c(F)c1` [Compound I-003, 5-(2-Fluoro-4-methylphenyl)-2-(6-(4-isopropyl-4H-1,2,4-triazol-3-yl)pyridin-2-yl)thiazole]: the EC50 lay within 50 to 500 nM.

`CC(C)n1cnnc1-c1cccc(-c2ncc(-c3cccc(OC(F)(F)F)c3)o2)n1` [Compound I-082]: the half-maximal effective concentration (EC50) lay within 50 to 500 nM.

As for `C[C@H](CO)n1cnnc1-c1cccc(-c2ncc(-c3cccc(C4=CCCC4)c3)o2)n1` [Compound I-136], the concentration giving a half-maximal response (EC50) was at most 50 nM.

As to `CC(C)n1cnnc1-c1cccc(-c2ncc(-c3ccncc3)o2)n1` [Compound I-021], the EC50 fell in the range of 50 to 500 nM.

In the case of `CC(C)n1cnnc1-c1cccc(-c2ncc(-c3cccc(N4CCC(NC(=O)OC(C)(C)C)C4)c3)o2)n1` (centres unmarked) [Compound I-128], the EC50 is at most 50 nM.

Turning to `CC(C)n1cnnc1-c1cccc(-c2ncc(-c3cccc(O)c3)o2)n1` [Compound I-073], the EC50 is at most 50 nM.

On to `COC(=O)c1cccc(-c2cnc(-c3cccc(-c4nncn4C(C)C)n3)o2)c1` [Compound I-092], for which the EC50 is at most 50 nM.

Consider `CC(C)n1cnnc1-c1cccc(-c2ncc(-c3cccc(-c4ccncc4)c3)o2)n1` [Compound I-108], for which the EC50 is at most 50 nM.

Regarding `C[C@H](CO)n1cnnc1-c1cccc(-c2ncc(-c3cccc(N(C)C)c3)o2)n1` [Compound I-059], the concentration for a half-maximal effect (EC50) is at most 50 nM.

On to `C[C@H](CO)n1cnnc1-c1cccc(-c2ncc(-c3cccc(N4CCCC4)c3)o2)n1` [Compound I-126], for which the EC50 is at most 50 nM.

As for `C[C@H](CO)n1cnnc1-c1cccc(-c2ncc(-c3ccc(S(C)(=O)=O)cc3)o2)n1` [Compound I-098], the concentration giving a half-maximal response (EC50) was at most 50 nM.

In the case of `CC(C)n1cnnc1-c1cccc(-c2ncc(-c3ccc(F)cc3F)o2)n1` [Compound I-049], the half-maximal effective concentration (EC50) is 50 to 500 nM.

Turning to `CC(C)n1cnnc1-c1cccc(-c2ncc(-c3ccccc3C#N)o2)n1` [Compound I-089], the EC50 fell in the range of 50 to 500 nM.

Turning to `CC(C)n1cnnc1-c1cccc(-c2ncc(-c3ccc4c(c3)CCCC4)o2)n1` [Compound I-103], the 50% effective concentration (EC50) lay in the range of 50 to 500 nM.

Consider `CC(C)n1cnnc1-c1cccc(-c2ncc(-c3cccc(C(F)(F)F)c3)o2)n1` [Compound I-086], for which the EC50 fell in the range of 50 to 500 nM.

Turning to `CC(C)n1cnnc1-c1cccc(-c2ncc(-c3cccc(C4CC4)c3)o2)n1` [Compound I-040], the EC50 is at most 50 nM.

Turning to `CCc1cccc(-c2cnc(-c3cccc(-c4nncn4C(C)C)n3)o2)c1` [Compound I-037], the concentration giving a half-maximal response (EC50) fell in the range of 50 to 500 nM.

Regarding `Cc1cccc(F)c1-c1cnc(-c2cccc(-c3nncn3C(C)C)n2)o1` [Compound I-044], the EC50 lay within 50 to 500 nM.

As for `CC(C)n1cnnc1-c1cccc(-c2ncc(-c3cccc(N4CCC(N5CCOCC5)CC4)c3)o2)n1` [Compound I-122], the EC50 is 50 to 500 nM.

On to `Cc1ccc(-c2cnc(-c3cccc(-c4nncn4[C@H](C)CO)n3)o2)c(C)c1` [Compound I-032], for which the EC50 was at most 50 nM.

For the molecule `Cc1ccc(-c2cnc(-c3cccc(-c4nncn4[C@@H](C)CO)n3)o2)c(F)c1` [Compound I-043], the 50% effective concentration (EC50) lay in the range of 50 to 500 nM.

Take `CC(C)n1cnnc1-c1cccc(-c2ncc(-c3cccc(N4CCCCC4)c3)o2)n1` [Compound I-120]: the EC50 was in the range of 50 to 500 nM.

Turning to `CC(C)n1cnnc1-c1cccc(-c2ncc(-c3cccc(C4=CCCCCC4)c3)o2)n1` [Compound I-138], the EC50 is 50 to 500 nM.

Take `C[C@H](CO)n1cnnc1-c1cccc(-c2ncc(-c3c(F)cc(F)cc3F)o2)n1` [Compound I-053]: the EC50 was at most 50 nM.

For `CC(=O)N1CCN(c2cccc(-c3cnc(-c4cccc(-c5nncn5C(C)C)n4)o3)c2)CC1` [Compound I-011, 1-(4-(3-(2-(6-(4-Isopropyl-4H-1,2,4-triazol-3-yl)pyridin-2-yl)oxazol-5-yl)phenyl)piperazin-1-yl)ethenone], the concentration giving a half-maximal response (EC50) is at most 50 nM.

In the case of `C[C@H](CO)n1cnnc1-c1cccc(-c2ncc(-c3cccc(N4CCOCC4)c3)o2)n1` [Compound I-111], the half-maximal effective concentration (EC50) was at most 50 nM.

`C[C@H](CO)n1cnnc1-c1cccc(-c2ncc(-c3ccccc3)o2)n1` [Compound I-018]: the EC50 was at most 50 nM.

As to `CC(C)n1cnnc1-c1cccc(-c2ncc(-c3cccc(N(C)C)c3)o2)n1` [Compound I-058], the EC50 was at most 50 nM.

With `CC(C)n1cnnc1-c1cccc(-c2ncc(-c3cccc(C4=CCCC4)c3)o2)n1` [Compound I-134], the concentration for a half-maximal effect (EC50) was 50 to 500 nM.
